According to ChEMBL document CHEMBL1130600, “Tropane-based amino acids for peptide structure-function studies: inhibitors of platelet aggregation” (Bioorg Med Chem Lett, 1998):

organism: Homo sapiens; experiment: Compound was tested for its ability to inhibit the thrombin-induced platelet aggregation in washed human platelets; format: functional

Row | SMILES | IC50 [µM]
1 | CC(=O)NC(CCCCN)C(=O)N1C2CCC1C(C(=O)NCCC(=O)O)C2 (stereo unspecified) | > 500
2 | CC(=O)NC(CCCCN)C(=O)N1CCCC(C(=O)NCCC(=O)O)C1 (stereo unspecified) | 60
3 | CC(=O)NC(CCCCN)C(=O)N1C2CC=C(C(=O)NCCC(=O)O)C1CC2 (stereo unspecified) | > 500
4 | NC(N)=NCCCC(N)C(=O)N1C2CCC(C(=O)NC(CC(=O)O)C(=O)NC(CO)C(=O)O)C1CC2 (stereo unspecified) | 23
5 | CC(=O)N[C@H](CCCCN)C(=O)N1C2CCC1C(C(=O)NCCC(=O)O)C2 (stereo partly specified) | > 500
6 | NC(N)=NCCCC(N)C(=O)N1C2CCC1C(C(=O)NC(CC(=O)O)C(=O)NC(CO)C(=O)O)C2 (stereo unspecified) | 402

The next lines start with the values.

Row | IC50 [µM] | SMILES
7 | 160 | CC(=O)N[C@H](CCCCN)C(=O)N1C2CC=C(C(=O)NCCC(=O)O)C1CC2 (stereo partly specified)
8 | 20 | CC(=O)N[C@H](CCCCN)C(=O)N1CCCC(C(=O)NCCC(=O)O)C1 (stereo partly specified)
9 | 270 | NC(N)=NCCCC(N)C(=O)N1C2CC=C(C(=O)NC(CC(=O)O)C(=O)NC(CO)C(=O)O)C1CC2 (stereo unspecified)
10 | 30 | CC(=O)N[C@H](CCCCN)C(=O)N1C2CCC(C(=O)NCCC(=O)O)C1CC2 (stereo partly specified)
11 | 370 | CC(=O)NC(CCCCN)C(=O)N1C2CCC(C(=O)NCCC(=O)O)C1CC2 (stereo unspecified)
